Assays:
Conditions in all cases: 250 g/ha, evaluated after 13 days, five-point scale
AMAPA [1] = assay: Post-emergence herbicidal glasshouse test; format: in vivo, Amaranthus tuberculatus
[2] = tested on: Amaranthus retoflexus (AMARE); assay: Post-emergence herbicidal glasshouse test; format: in vivo
[3] = tested on: Ipomoea hederacea (IPOHE); assay: Post-emergence herbicidal glasshouse test; format: in vivo
[4] = tested on: Amaranthus retoflexus (AMARE); assay: Pre-emergence herbicidal glasshouse test; format: in vivo
[5] = tested on: Echinochloa crus-galli (ECHCG); assay: Post-emergence herbicidal glasshouse test; format: in vivo
[6] = tested on: Echinochloa crus-galli (ECHCG); assay: Pre-emergence herbicidal glasshouse test; format: in vivo
AMAPA [7] = assay: Pre-emergence herbicidal glasshouse test; format: in vivo, Amaranthus tuberculatus
[8] = tested on: Ipomoea hederacea (IPOHE); assay: Pre-emergence herbicidal glasshouse test; format: in vivo

Structure (SMILES)	percentage damage caused to the plant, AMAPA (AMAPA [1])	percentage damage caused to the plant, AMARE [2]	percentage damage caused to the plant, IPOHE [3]	percentage damage caused to the plant, AMARE [4]	percentage damage caused to the plant, ECHCG [5]	percentage damage caused to the plant, ECHCG [6]	percentage damage caused to the plant, AMAPA (AMAPA [7])	percentage damage caused to the plant, IPOHE [8]
FC(F)(F)c1ncc2c(Oc3ncc(C4CC4)cn3)cccc2n1 [Compound 1.012]	1 (1=0-20%)	1 (1=0-20%)	1 (1=0-20%)	1 (1=0-20%)	1 (1=0-20%)	1 (1=0-20%)	1 (1=0-20%)	1 (1=0-20%)
Cc1ccc(Oc2ncc(Br)cn2)c2cnc(C(F)F)nc12 [Compound 1.023]	3 (3=41-60%)	2 (2=21-40%)	1 (1=0-20%)	2 (2=21-40%)	1 (1=0-20%)	1 (1=0-20%)	1 (1=0-20%)	1 (1=0-20%)
COc1nc(C)c2c(Oc3ncc(Cl)cn3)cccc2n1 [Compound 1.024]	2 (2=21-40%)	1 (1=0-20%)	1 (1=0-20%)	3 (3=41-60%)	1 (1=0-20%)	1 (1=0-20%)	3 (3=41-60%)	1 (1=0-20%)
Cc1cnc(Oc2ccc(C)c3nc(C(F)(F)F)ccc23)nc1 [Compound 1.025]	3 (3=41-60%)	2 (2=21-40%)	2 (2=21-40%)	1 (1=0-20%)	1 (1=0-20%)	1 (1=0-20%)	1 (1=0-20%)	1 (1=0-20%)
Cc1ccc(Oc2ncc(Br)cn2)c2ccc(C(F)(F)F)nc12 [Compound 1.026]	2 (2=21-40%)	2 (2=21-40%)	1 (1=0-20%)	1 (1=0-20%)	1 (1=0-20%)	1 (1=0-20%)	1 (1=0-20%)	1 (1=0-20%)
Cc1ccc(Oc2ncc(Cl)cn2)c2cnc(C(F)(F)Cl)nc12 [Compound 1.048]	2 (2=21-40%)	2 (2=21-40%)	1 (1=0-20%)		1 (1=0-20%)	1 (1=0-20%)	1 (1=0-20%)	1 (1=0-20%)
Cc1nc(C(F)F)nc2cccc(Oc3ncc(Cl)cn3)c12 [Compound 1.067]	4 (4=61-80%)	4 (4=61-80%)	3 (3=41-60%)		1 (1=0-20%)	1 (1=0-20%)	3 (3=41-60%)	2 (2=21-40%)
